In ChEMBL document CHEMBL6092206, “Discovery and Characterization of BAY-184: A New Potent and Selective Acylsulfonamide-Benzofuran In Vivo-Active KAT6AB Inhibitor” (J Med Chem, 2024):
In brackets after ≈: the same amount, converted by molar mass.

Key:
[1] = target: T1, Histone acetyltransferase KAT6A (Homo sapiens, UniProt Q92794); test: Inhibition of KAT6A in human MVLN cells assessed as decrease in estrogen receptor level incubated for 24 hrs by gene reporter assay; type: cell-based
[2] = target: T1, Histone acetyltransferase KAT6A; test: Inhibition of his-tagged human recombinant KAT6A (194 to 810 residues) expressed in baculovirus-infected Sf9 insect cells using H4-derived peptide as substrate incubated for 40 mins in presence of AcCoA by TR-FRET assay
[3] = Dissociation constant, pKa of compound; type: physicochemical
[4] = target: Histone acetyltransferase KAT6B (Homo sapiens, UniProt Q8WYB5); test: Inhibition of C-terminal human recombinant KAT6B (431 to end residues) expressed in baculovirus-infected Sf9 insect cells using H4-derived peptide as substrate incubated for 30 mins in presence of AcCoA by TR-FRET assay
[5] = Apparent permeability across apical to basolateral side in human Caco-2 cells at 2 uM pH 7.2 measured for 2 hrs by LC-MS/MS analysis; type: ADME, cell-based
[6] = Aqueous solubility of compound in PBS at pH 6.5 incubated for 24 hrs by HPLC-UV analysis; type: physicochemical
[7] = Lipophilicity, logD of the compound at pH 7.5; type: physicochemical; conditions: buffer
[8] = Efflux ratio of apparent permeability across basolateral to apical side over apical to basolateral side in human Caco-2 cells incubated for 2 hrs by LC-MS/MS analysis; type: ADME, cell-based; conditions: caco-2, 2 h

Chain of Histone acetyltransferase KAT6B (Q8WYB5 whole entry): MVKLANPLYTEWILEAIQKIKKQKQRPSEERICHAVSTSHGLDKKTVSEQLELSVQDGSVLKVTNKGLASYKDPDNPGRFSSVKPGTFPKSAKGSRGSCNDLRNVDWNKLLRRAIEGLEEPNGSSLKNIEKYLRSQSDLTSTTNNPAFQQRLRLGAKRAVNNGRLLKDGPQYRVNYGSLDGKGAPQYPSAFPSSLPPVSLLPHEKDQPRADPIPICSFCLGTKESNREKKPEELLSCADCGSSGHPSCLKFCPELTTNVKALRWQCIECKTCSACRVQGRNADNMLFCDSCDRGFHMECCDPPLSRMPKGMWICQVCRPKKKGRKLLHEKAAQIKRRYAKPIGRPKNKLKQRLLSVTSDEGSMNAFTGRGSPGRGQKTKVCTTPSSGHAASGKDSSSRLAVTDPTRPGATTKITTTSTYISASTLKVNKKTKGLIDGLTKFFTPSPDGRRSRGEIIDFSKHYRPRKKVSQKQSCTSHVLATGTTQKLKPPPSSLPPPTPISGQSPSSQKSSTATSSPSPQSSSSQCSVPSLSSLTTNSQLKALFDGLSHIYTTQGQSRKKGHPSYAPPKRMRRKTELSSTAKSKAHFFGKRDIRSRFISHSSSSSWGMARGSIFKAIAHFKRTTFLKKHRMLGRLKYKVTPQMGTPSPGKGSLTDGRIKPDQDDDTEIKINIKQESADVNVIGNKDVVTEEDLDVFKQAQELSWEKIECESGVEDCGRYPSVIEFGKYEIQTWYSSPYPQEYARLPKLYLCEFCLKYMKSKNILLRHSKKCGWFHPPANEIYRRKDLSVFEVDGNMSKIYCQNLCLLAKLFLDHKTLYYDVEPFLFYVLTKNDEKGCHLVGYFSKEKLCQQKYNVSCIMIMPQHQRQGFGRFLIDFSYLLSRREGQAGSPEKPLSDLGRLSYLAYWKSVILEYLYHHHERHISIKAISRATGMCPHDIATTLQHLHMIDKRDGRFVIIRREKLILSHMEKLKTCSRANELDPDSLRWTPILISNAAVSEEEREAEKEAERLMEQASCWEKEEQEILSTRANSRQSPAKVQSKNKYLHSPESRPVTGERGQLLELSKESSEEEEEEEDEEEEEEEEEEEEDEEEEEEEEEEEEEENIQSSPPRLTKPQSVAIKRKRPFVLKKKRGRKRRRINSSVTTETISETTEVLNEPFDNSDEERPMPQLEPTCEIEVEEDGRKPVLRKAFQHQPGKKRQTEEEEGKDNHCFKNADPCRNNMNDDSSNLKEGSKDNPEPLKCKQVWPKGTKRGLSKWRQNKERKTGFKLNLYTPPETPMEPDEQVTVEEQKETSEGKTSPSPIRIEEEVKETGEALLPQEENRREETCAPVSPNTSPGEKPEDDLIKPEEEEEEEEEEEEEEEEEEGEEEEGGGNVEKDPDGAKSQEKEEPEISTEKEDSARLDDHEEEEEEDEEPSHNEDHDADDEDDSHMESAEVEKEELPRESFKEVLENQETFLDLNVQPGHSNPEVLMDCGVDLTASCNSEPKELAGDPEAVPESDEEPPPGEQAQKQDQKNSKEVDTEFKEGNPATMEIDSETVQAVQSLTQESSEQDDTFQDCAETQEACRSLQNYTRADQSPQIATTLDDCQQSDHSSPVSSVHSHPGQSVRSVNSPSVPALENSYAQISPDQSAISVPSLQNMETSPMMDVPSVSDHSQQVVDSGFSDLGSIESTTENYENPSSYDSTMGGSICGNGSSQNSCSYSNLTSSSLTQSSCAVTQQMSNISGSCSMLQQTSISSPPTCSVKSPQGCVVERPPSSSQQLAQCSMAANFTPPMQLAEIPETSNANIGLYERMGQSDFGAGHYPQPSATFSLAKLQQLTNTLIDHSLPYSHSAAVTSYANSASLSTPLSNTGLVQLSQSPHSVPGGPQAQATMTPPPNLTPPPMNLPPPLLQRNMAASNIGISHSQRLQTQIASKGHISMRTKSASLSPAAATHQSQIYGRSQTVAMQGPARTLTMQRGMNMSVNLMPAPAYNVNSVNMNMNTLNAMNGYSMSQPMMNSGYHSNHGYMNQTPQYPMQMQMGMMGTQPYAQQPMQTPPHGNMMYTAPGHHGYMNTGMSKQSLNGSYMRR
T1 sequence (Q92794 whole entry, the tested form may be a part): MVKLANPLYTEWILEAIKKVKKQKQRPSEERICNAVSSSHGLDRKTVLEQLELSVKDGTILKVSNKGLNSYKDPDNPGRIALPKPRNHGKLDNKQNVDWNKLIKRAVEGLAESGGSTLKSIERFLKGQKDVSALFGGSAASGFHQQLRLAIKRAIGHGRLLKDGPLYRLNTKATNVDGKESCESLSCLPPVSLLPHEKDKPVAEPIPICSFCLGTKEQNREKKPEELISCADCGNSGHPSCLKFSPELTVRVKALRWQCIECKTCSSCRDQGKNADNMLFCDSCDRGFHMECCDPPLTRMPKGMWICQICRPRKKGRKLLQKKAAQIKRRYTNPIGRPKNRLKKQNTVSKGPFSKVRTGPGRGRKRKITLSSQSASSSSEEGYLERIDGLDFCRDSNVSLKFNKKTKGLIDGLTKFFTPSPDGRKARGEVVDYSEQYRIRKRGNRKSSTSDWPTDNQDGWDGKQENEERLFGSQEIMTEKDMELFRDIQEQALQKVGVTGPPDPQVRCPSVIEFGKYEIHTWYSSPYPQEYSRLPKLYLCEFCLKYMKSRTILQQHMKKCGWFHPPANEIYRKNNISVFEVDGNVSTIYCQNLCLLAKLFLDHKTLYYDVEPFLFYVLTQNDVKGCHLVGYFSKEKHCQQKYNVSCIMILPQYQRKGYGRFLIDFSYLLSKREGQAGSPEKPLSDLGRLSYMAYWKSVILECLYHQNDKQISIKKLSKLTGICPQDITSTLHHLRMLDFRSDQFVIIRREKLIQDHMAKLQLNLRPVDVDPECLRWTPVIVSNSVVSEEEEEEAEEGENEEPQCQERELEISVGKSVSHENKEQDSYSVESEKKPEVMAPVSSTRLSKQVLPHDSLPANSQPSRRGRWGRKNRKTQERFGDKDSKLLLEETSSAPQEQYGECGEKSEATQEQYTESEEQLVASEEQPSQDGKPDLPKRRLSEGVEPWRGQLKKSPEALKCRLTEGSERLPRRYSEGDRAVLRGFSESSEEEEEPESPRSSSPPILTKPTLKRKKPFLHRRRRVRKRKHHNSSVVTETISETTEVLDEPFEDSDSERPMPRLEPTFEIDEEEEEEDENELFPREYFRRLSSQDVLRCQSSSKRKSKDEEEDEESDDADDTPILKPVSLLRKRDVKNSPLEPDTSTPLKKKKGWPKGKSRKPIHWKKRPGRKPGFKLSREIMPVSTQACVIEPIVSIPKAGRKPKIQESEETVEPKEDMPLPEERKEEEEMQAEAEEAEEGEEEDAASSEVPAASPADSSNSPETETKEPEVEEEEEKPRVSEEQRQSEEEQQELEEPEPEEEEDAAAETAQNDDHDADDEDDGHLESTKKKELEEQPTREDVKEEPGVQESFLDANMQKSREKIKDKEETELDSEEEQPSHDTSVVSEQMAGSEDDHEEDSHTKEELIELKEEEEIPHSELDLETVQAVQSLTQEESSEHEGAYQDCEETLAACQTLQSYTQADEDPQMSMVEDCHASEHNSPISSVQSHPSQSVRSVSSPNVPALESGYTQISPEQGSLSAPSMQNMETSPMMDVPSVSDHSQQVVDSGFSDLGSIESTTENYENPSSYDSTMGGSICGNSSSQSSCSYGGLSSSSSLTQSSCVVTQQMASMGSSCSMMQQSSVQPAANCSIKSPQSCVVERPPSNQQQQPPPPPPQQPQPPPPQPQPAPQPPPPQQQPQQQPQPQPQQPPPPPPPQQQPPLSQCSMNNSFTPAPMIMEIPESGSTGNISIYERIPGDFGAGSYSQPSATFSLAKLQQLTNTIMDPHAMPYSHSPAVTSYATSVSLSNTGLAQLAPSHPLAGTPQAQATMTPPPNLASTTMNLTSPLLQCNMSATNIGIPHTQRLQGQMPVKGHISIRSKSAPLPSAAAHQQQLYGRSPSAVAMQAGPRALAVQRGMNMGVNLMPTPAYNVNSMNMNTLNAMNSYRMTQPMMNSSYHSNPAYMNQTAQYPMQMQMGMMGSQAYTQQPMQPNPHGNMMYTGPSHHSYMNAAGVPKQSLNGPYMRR

Row | IC50 [1] [nM] | IC50 [2] [nM] | Compound | further results
1 | 18200 | 107 | COc1cc(C)c2cc(C(=O)NS(=O)(=O)c3ccc(C)cc3)oc2c1 | pKa [3]: 3
2 | 2580 |  | CNc1ccc2cc(C(=O)NS(=O)(=O)c3ccccc3-c3ccccc3)oc2c1 | 
3 | > 20000 | 66 | Cc1cc(Br)cc2oc(C(=O)NS(=O)(=O)c3ccccc3-c3ccccc3)cc12 | 
4 | 2280 | 75 | COc1cc(C)c2cc(C(=O)NS(=O)(=O)c3ccc(Cl)cc3)oc2c1 | pKa [3]: 2.9
5 | 4520 | 142 | COc1cccc2cc(C(=O)NS(=O)(=O)c3ccccc3-c3ccccc3)oc12 | IC50 [4]: 351 nM
6 | 1400 | 32 | CCOc1cccc(-c2ccccc2)c1S(=O)(=O)NC(=O)c1cc2c(C)cc(OC)cc2o1 | pKa [3]: 5.6
7 | > 17600 | 46 | COc1cc(C)c2cc(C(=O)NS(=O)(=O)c3ccc(-c4ccccc4)cc3)oc2c1 | pKa [3]: 5.8
8 | > 20000 | 751 | CCCN(C)c1ccc2cc(C(=O)NS(=O)(=O)c3ccccc3-c3ccccc3)oc2c1 | 
9 | 13200 | 46 | COc1cc(C)c2cc(C(=O)NS(=O)(=O)c3ccccc3OC)oc2c1 | pKa [3]: 3.2
10 | > 15600 |  | COCCc1ccc2cc(C(=O)NS(=O)(=O)c3ccccc3-c3ccccc3)oc2c1 | 
11 |  |  | CCOc1ccccc1S(=O)(=O)NC(=O)c1cc2c(OC)cc(OC)cc2o1 | Papp A→B at 2 h, 2 µM ([5]; Caco-2, pH 7.2): 2.8 ×10⁻⁶ cm/s
12 | > 20000 |  | Cc1cc(N(C)C)cc2oc(C(=O)NS(=O)(=O)c3ccccc3-c3ccccc3)cc12 | 
13 | > 20000 |  | O=C(NS(=O)(=O)c1ccccc1-c1ccccc1)c1cc2ccc(C(F)F)cc2o1 | 
14 | > 20000 | 10 | COc1cc(C)c2cc(C(=O)NS(=O)(=O)c3ccc(C)cc3-c3ccccc3)oc2c1 | pKa [3]: 4.7
15 |  | 1350 | COc1cccc2oc(C(=O)NS(=O)(=O)c3ccccc3-c3ccccc3)cc12 | IC50 [4]: 3140 nM
16 | 60 |  | CN(C)c1cc(F)c2cc(C(=O)NS(=O)(=O)c3ccccc3-c3ccccc3)oc2c1 | solubility at 24 h [6]: 264 µg/mL (≈ 602 µM); logD [7]: 2
17 | 1320 |  | C=C(C)c1ccc2cc(C(=O)NS(=O)(=O)c3ccccc3-c3ccccc3)oc2c1 | 
18 | 3680 | 11 | CCOc1cccc(-c2cccc(Cl)c2)c1S(=O)(=O)NC(=O)c1cc2c(C)cc(OC)cc2o1 | pKa [3]: 6

Row | IC50 [1] [nM] | IC50 [2] [nM] | Compound | further results
19 | > 20000 | 2160 | O=C(NS(=O)(=O)c1ccccc1-c1ccccc1)c1cc2ccccc2o1 | IC50 [4]: 10500 nM
20 | 2570 | 13 | COc1cc(C)c2cc(C(=O)NS(=O)(=O)c3cccc4ccc(C)nc34)oc2c1 | 
21 | > 4600 | 24 | COc1cc(C)c2cc(C(=O)NS(=O)(=O)c3ccccc3-c3ccccc3)oc2c1 | IC50 [4]: 76 nM; pKa [3]: 4.3; Papp ([5]; caco-2, pH 7.2, 2 h, 2 µM): 6.4 ×10⁻⁶ cm/s; Ratio [8]: 1
22 | 9750 | 554 | CCOc1ccc2cc(C(=O)NS(=O)(=O)c3ccccc3-c3ccccc3)oc2c1 | 
23 | 2500 |  | Cc1cc(C)c2cc(C(=O)NS(=O)(=O)c3ccccc3-c3ccccc3)oc2c1 | 
24 | 7620 | 260 | COc1ccc2cc(C(=O)NS(=O)(=O)c3ccccc3-c3ccccc3)oc2c1 | IC50 [4]: 368 nM
25 | 6540 | 19 | CCCOc1ccccc1S(=O)(=O)NC(=O)c1cc2c(C)cc(OC)cc2o1 | pKa [3]: 4
26 | > 20000 | 1370 | O=C(NS(=O)(=O)c1ccccc1-c1ccccc1)c1cc2ccc(OCCO)cc2o1 | 
27 |  | 454 | Cc1cccc2oc(C(=O)NS(=O)(=O)c3ccccc3-c3ccccc3)cc12 | IC50 [4]: 2570 nM
28 |  | 1800 | COc1ccc2oc(C(=O)NS(=O)(=O)c3ccccc3-c3ccccc3)cc2c1 | IC50 [4]: 9020 nM
29 | > 15500 | 1350 | COCCN(C)c1ccc2cc(C(=O)NS(=O)(=O)c3ccccc3-c3ccccc3)oc2c1 | 
30 | 10000 |  | COc1cc(C)cc2oc(C(=O)NS(=O)(=O)c3ccccc3-c3ccccc3)cc12 | 
31 | > 20000 | > 20000 | O=C(NS(=O)(=O)c1ccccc1-c1ccccc1)c1cc2ccc(N3CCOCC3)cc2o1 | 
32 | 1000 | 173 | O=C(NS(=O)(=O)c1ccccc1-c1ccccc1)c1cc2c(F)cc(C3CC3)cc2o1 | 
33 | 8680 | 1540 | CCCOc1ccc2cc(C(=O)NS(=O)(=O)c3ccccc3-c3ccccc3)oc2c1 | 
34 | 3020 |  | CC(C)c1ccc2cc(C(=O)NS(=O)(=O)c3ccccc3-c3ccccc3)oc2c1 | 
35 | > 11000 |  | Cc1ccc2cc(C(=O)NS(=O)(=O)c3ccccc3-c3ccccc3)oc2c1 | 

Row | Compound | IC50 [1] [nM] | IC50 [2] [nM] | further results
36 | O=C(NS(=O)(=O)c1ccccc1-c1ccccc1)c1cc2ccc(C3CC3)cc2o1 | 1020 |  | 
